Patent US8648112B2, “Therapeutic uses of urolithins” (The Regents of the University of California, priority 2006, dated 2014)
Read-outs that look alike come from different tables or passages of the source.

Assays:
[1] = test system: human colon cancer cell line HCT-116; experiment: Antiproliferative activity against colon cancer cells (CellTiter-Glo); type: cell-based; conditions: 100 μg/mL, 48 hrs
Procedure: (§1) EA and EA-metabolites (gallic and gallagic acids, urolithin B and methylated-urolithin A) were evaluated for antiproliferative activity against the human colon cancer cell line HCT-116. The cells were grown to a concentration of 10,000 cells per well in a 96 well format; and were then resuspended in medium containing vehicle control or the indicated compound: Ellagic acid, urolithin A, methyl urolithin A, or urolithin B, at a concentration of 100 μg/mL. The cells were incubated for 48 hrs, and the viability assayed by the CellTiter-Glo® Luminescent Cell Viability Assay (Technical Bulletin #288, Promega Corp., Madison, Wis.).

[2] = test system: LNCaP prostate cancer cell line; experiment: Antiproliferative cell assay (CellTiter-Glo), LNCaP; type: cell-based, human; conditions: 48 h exposure, read-out: IC50 against prostate cancer cell line LNCaP
Procedure: (§2) Cell Culture Materials. The 22Rv1, DU145, LNCaP and PC3 prostate cancer cell lines were obtained from American Type Culture Collection (ATCC, Rockville, Md.). The LNCaP-AR and Hi-Myc cell lines were a kind donation by Dr. C. Sawyers (David Geffen School of Medicine, UCLA, Los Angeles, Calif.). DU145, 22Rv1, LNCaP, LNCaP-AR, and PC3 cells were grown in RPMI 1640; Hi-Myc cells were grown in Isecove's Modified Dulbecco's Medium. All media contained 10% fetal bovine serum (FBS) in the presence of 100 U/mL penicillin and 0.1 g/L streptomycin. RWPE-1 prostate cells were grown in Defined Keratinocyte Serum Free Medium (DKSFM) containing epidermal growth factor (EGF), insulin and fibroblast growth factor (FGF). Cells were incubated at 37° C. with 95% air and 5% CO2. All cells were maintained below passage 20 and used in experiments during the linear phase of growth.
(§3) Proliferation was measured utilizing the CellTiter-Glo® Luminescent Cell Viability Assay (Technical Bulletin #288, Promega Corp., Madison, Wis.). When added to cells, the assay reagent produces luminescence in the presence of ATP from viable cells. Cells were plated in 96-well plates at a density of 10,000 cells/well and incubated for 24 hours. Test samples were solubilized in DMSO by sonication, filter sterilized and diluted with media to the desired treatment concentration. Cells were treated with 100 μLcontrol media, vehicle control (DMSO<0.2% of total) or test samples and incubated for 48 h drug exposure duration at 6.25, 12.5, 25, 50 and 100 μg/mL concentrations. At the end of 48 h, plates were equilibrated at room temperature for 30 min; 100 μL of the assay reagent was added to each well and cell-lysis was induced on an orbital shaker for 2 min. Plates were incubated at room temperature for 10 min to stabilize the luminescence signal and results were read on an Orion Microplate Luminometer (Bertholds Detection Systems, Pforzheim, Germany). All plates had control wells containing medium without cells to obtain a value for background luminescence. Data are expressed as percentage of untreated cells (i.e. treatment value-blank/vehicle value-blank), mean±SE for three replications.

[3] = test system: PC3 prostate cancer cell line; experiment: Antiproliferative cell assay (CellTiter-Glo), PC3; type: cell-based, human; conditions: 48 h exposure, read-out: IC50 against prostate cancer cell line PC3
Procedure: as §2, §3

[4] = test system: human pancreatic cancer cell line BXPC-3; experiment: Antiproliferative activity against pancreatic cancer cells (CellTiter-Glo), BXPC-3; type: cell-based; conditions: 100 μg/mL, 48 hrs
Procedure: as §1, with “pancreatic” for “colon”, “lines ASPC-1 and BXPC-3.” for “line HCT-116.”, “well;” for “well in a 96 well format;”, “containing the” for “containing”, “byCellTiter-Glo®” for “by the CellTiter-Glo®”

[5] = test system: Hi-Myc prostate cancer cell line; experiment: Antiproliferative cell assay (CellTiter-Glo), Hi-Myc; type: cell-based; conditions: Hi-Myc (mouse), 48 h exposure, read-out: IC50 against prostate cancer cell line HiMyc
Procedure: as §2, §3

[6] = test system: LNCaP-AR prostate cancer cell line; experiment: Antiproliferative cell assay (CellTiter-Glo), LNCaP-AR; type: cell-based, human; conditions: 48 h exposure, read-out: IC50 against prostate cancer cell line LNCap-AR
Procedure: as §2, §3

[7] = test system: human pancreatic cancer cell line ASPC-1; experiment: Antiproliferative activity against pancreatic cancer cells (CellTiter-Glo), ASPC-1; type: cell-based; conditions: 100 μg/mL, 48 hrs
Procedure: as §1, with “pancreatic” for “colon”, “lines ASPC-1 and BXPC-3.” for “line HCT-116.”, “well;” for “well in a 96 well format;”, “containing the” for “containing”, “byCellTiter-Glo®” for “by the CellTiter-Glo®”

[8] = test system: DU145 prostate cancer cell line; experiment: Antiproliferative cell assay (CellTiter-Glo), DU145; type: cell-based, human; conditions: read-out: IC50 against prostate cancer cell line DU145
Procedure: as §2, §3

[9] = test system: 22Rv1 prostate cancer cell line; experiment: Antiproliferative cell assay (CellTiter-Glo), 22Rv1; type: cell-based, human; conditions: 48 h exposure, read-out: IC50 against prostate cancer cell line 22 Rv1
Procedure: as §2, §3

22Rv1 cells = experiment: In vitro proliferation (tritiated thymidine uptake), 22RV1; type: cell-based; conditions: mean ± SE, read-out: IC50 on growth of human prostate cancer cells
Text: (§4) DU145 and LNCaP cells (ATCC, Rockville, Md.), 22Rv1 cells (gift from Pinchas Cohen), and LNCAP-AR cells (gift from Charles Sawyers) were maintained below passage 20 and used in experiments during the linear phase of growth as previously described (Seeram et al. J Nutr Biochem. 16 (2005), p. 360). EA was purchased from Sigma-Aldrich (St. Louis, Mo.). UA (3,8-dihydroxy-6H-benzo[b,d]chromen-6-one), methylated UA and dimethylated UA were synthesized in our laboratory as previously described (Ghosal et al. J Chem Res Synop. 11 (1989), p. 350). Compounds were dissolved in dimethylsulfoxide (DMSO) then added to media to achieve the final desired test concentration with a final DMSO concentration not exceeding 0.1%. Proliferation was determined by tritiated thymidine uptake as previously described. All assays were performed in triplicate.
(§5) For the cell proliferation assays, data are expressed as a percentage of untreated cells (i.e. treatment value-blank/vehicle value-blank), mean±SE for at least three separate experiments. Data were analyzed by either student's t-test or one-way ANOVA followed by Dunnett's Multiple Range test (α=0.05) with Graph Pad Prism 3.0 (Graph Pad Software Inc.) as appropriate.

DU145 cells = experiment: In vitro proliferation (tritiated thymidine uptake), DU145; type: cell-based; conditions: read-out: IC50 on growth of human prostate cancer cells
Text: as §4, §5

LNCaP cells = experiment: In vitro proliferation (tritiated thymidine uptake), LNCaP; type: cell-based; conditions: mean ± SE, read-out: IC50 on growth of human prostate cancer cells
Text: as §4, §5

LNCaP-AR cells = experiment: In vitro proliferation (tritiated thymidine uptake), LNCaP-AR; type: cell-based; conditions: mean ± SE, read-out: IC50 on growth of human prostate cancer cells
Text: as §4, §5

[10] = Tissue disposition study after UA administration; type: in vivo, C57/B6 mice; conditions: for UA and UA-conjugate levels in plasma at 24 h / UA and UA-conjugate levels in tissues at 24 h: below detectable limit
Procedure: Pomegranate extract (PE) derived from the skin of pomegranate fruit (Punica granatum L., Paramount Farms, Lost Hills, Calif.) was standardized to 37% ETs (as punicalagins) and 3.5% free EA as reported (Seeram et al. Sep Purific Tech. 41 (2005), p. 49). PE was administered to animals in doses based on the amount of ETs in a single serving of pomegranate juice (240 ml of single strength juice, 80 mg of ETs). The equivalent dose that would be administered to a 70 kg human was calculated for a mouse of 25 g body weight to be 0.03 mg ETs. Ten times (10×) this dose was used in the animal studies (0.8 mg PE per dose per animal) to enhance our ability to detect phytochemical distribution. For studies administering UA, doses were calculated assuming complete conversion of ETs to UA. […] Both PE and UA were suspended in 50 μL PBS or 10% aqueous glucose solution for intraperitoneal or oral administration, respectively.
Male C57/B6 mice (n=156 mice, retired breeders, 7 months old, 25-30 g) from Charles River laboratories (Wilmington, Mass.) were fed AlN 93G diets and water ad libitum, and fasted 6 h prior to dosing. Mice were dosed orally or intraperitoneally with either PE (0.8 mg/mouse/dose; n=72), UA (0.3 mg/mouse/dose; n=72) or vehicle control (50 μL; n=12 mice). Blood samples were collected at 0.5, 1, 2, 4, 6 and 24 h after dosing and prostate, liver, kidney, lung, colon, intestine and brain tissues were collected and stored at −80° C. Harvested tissue (200 mg) was homogenized in methanol with 0.1% acetic acid (1 mL) and centrifuged at 3000×g for 10 min. The supernatant was dried on a SpeedVac then reconstituted with 200 μL of the HPLC mobile phase for a final injection volume of 20 μL. Xenograft tissue homogenates required acid hydrolysis prior to chromatography as reported (Gu et al. J Agric Food Chem. 53 (2005), p. 6858). HPLC-UV and HPLC-MS/MS analyses were carried out on a Waters Alliance 2690 system (Waters Corp., Milford, Mass.) an LCQ Classic Finnigan system (ThermoFinnigan, San Jose, Calif.), respectively, as previously described (Seeram et al. Clin Chim Acta. 348 (2004), p. 63). Linear calibration curves were constructed using a spiked internal standard method with EA or UA using plasma or liver tissues collected from control mice as described previously (Seeram et al. Clin Chim Acta. 348 (2004), p. 63). Accuracy values ranged from 91-108% for the quality control samples containing the EA or UA standard.

[11] = Homo sapiens, DU-145, 48 h exposure
[12] = UA 0.3 mg/mouse/dose intraperitoneal

| Structure (SMILES) | IC50 ([2]; Homo sapiens) [µM] | IC50 ([3]; Homo sapiens) [µM] | IC50 [5] [µM] | IC50 ([6]; Homo sapiens) [µM] | IC50 [8, 11] [µM] | IC50 ([9]; Homo sapiens, 22Rv1, 48 h) [µM] | IC50 [9] [µM] | IC50 (22Rv1 cells) [µM] | IC50 (DU145 cells; mean ± SE) [µM] | IC50 (LNCaP cells) [µM] | anti-proliferative activity, rank order [1] | anti-proliferative activity, rank order [4] | anti-proliferative activity, rank order [7] | further results |
| --- | --- | --- | --- | --- | --- | --- | --- | --- | --- | --- | --- | --- | --- | --- |
| COc1ccc2c(c1)c(=O)oc1cc(O)ccc12 [8-methyl-Urolithin A, 3-hydroxy-8-methoxyl-6H-dibenzo[b,d]pyran-6-one] | 206 | 526 | 586 | 151 | 466 | 127 | – | – | – | – | urolithin A is the most active, then ellagic acid, urolithin B and methyl urolithin A | urolithin A is the most active, then ellagic acid, urolithin B and methyl urolithin A | urolithin A is the most active, then ellagic acid, urolithin B and methyl urolithin A | – |
| O=C(O)c1cc(O)c(O)c(O)c1 [Gallic acid] | 32.3 | 111 | 73.5 | 29.2 | 29.4 | 18.6 | 18.5 | – | – | – | – | – | – | – |
| O=c1oc2cc(O)ccc2c2ccc(O)cc12 [UA, 3,8-dihydroxy-6H-benzo[b,d]chromen-6-one] | – | – | – | – | – | – | – | 47.8 ± 3.2 | 49.8 ± 3.9 | 31.3 ± 0.5 | most active | most active | most active | UA and UA-conjugate levels in plasma at 24 h [10, 12]: < 3 ng/mL; UA and UA-conjugate levels in tissues at 24 h [10, 12]: < 5 ng/g; UA and UA-conjugate levels in plasma at 24 h ([10]; UA 0.3 mg/mouse/dose oral): < 3 ng/mL; UA and UA-conjugate levels in tissues at 24 h ([10]; UA 0.3 mg/mouse/dose oral): < 5 ng/g; time of peak concentration in prostate, colon and intestine ([10]; UA intraperitoneally): 2 h; tissue uptake ([10]; UA orally, prostate followed by small intestine and colon): highest concentrations in the prostate gland; IC50 (LNCaP-AR cells): 43.3 ± 2.8 µM |

Second part, led by results:

| IC50 ([2]; Homo sapiens) [µM] | IC50 ([3]; Homo sapiens) [µM] | IC50 [5] [µM] | IC50 ([6]; Homo sapiens) [µM] | IC50 [8, 11] [µM] | IC50 ([9]; Homo sapiens, 22Rv1, 48 h) [µM] | IC50 [9] [µM] | IC50 (22Rv1 cells) [µM] | IC50 (DU145 cells; mean ± SE) [µM] | IC50 (LNCaP cells) [µM] | Structure (SMILES) | anti-proliferative activity, rank order [1] | anti-proliferative activity, rank order [4] | anti-proliferative activity, rank order [7] | further results |
| --- | --- | --- | --- | --- | --- | --- | --- | --- | --- | --- | --- | --- | --- | --- |
| 20.5 | 83.6 | 1.7 | 82.6 | 96 | 41.7 | – | – | – | – | O=c1oc2c(O)c(O)cc3c(=O)oc4c(O)c(O)cc1c4c23 [Ellagic acid, reference compound] | urolithin A is the most active, then ellagic acid, urolithin B and methyl urolithin A | urolithin A is the most active, then ellagic acid, urolithin B and methyl urolithin A | urolithin A is the most active, then ellagic acid, urolithin B and methyl urolithin A | IC50 (22Rv1 cells; Homo sapiens): 109 ± 16.6 µM; IC50 (DU145 cells; Homo sapiens, DU-145, mean ± SE): 74.3 ± 5.2 µM; IC50 (LNCaP cells; Homo sapiens): 62.4 ± 4.2 µM; IC50 (LNCaP-AR cells; Homo sapiens): 78.7 ± 3.2 µM |
| – | – | 82.7 | – | – | – | 166 | – | – | – | O=C(O)c1cc(O)c(O)c(O)c1-c1c(O)c(O)c2oc(=O)c3c(-c4c(C(=O)O)cc(O)c(O)c4O)c(O)c(O)c4oc(=O)c1c2c43 [Gallagic acid] | – | – | – | IC50 [2]: 71.4 µM; IC50 [3]: 83.6 µM; IC50 [6]: 82.4 µM; IC50 ([8]; 48 h exposure): 198 µM |
| – | – | – | – | – | – | – | 85 ± 8.6 | 70.7 ± 13 | 71.4 ± 13.5 | COc1ccc2c(c1)oc(=O)c1cc(OC)ccc12 [dmUA] | – | – | – | – |
